Test results published in patent publication US5914324A, “6-Hydroxy and 6-oxo-androstane derivatives active on the cardiovascular system and pharmaceutical compositions containing same” (Sigma-Tau Industrie Farmaceutiche Riunite S.p.A., priority 1996, dated 1999).
Where a name gives a salt, the structure may show the parent alone.

How the values were obtained:
guinea pig left atrium = test: inotropic activity in vitro, electrically paced guinea pig left atrium; settings: Cavia porcellus
[1] = acute toxicity mouse oral; settings: in vivo
Excerpt: Finally the compounds of the invention have a low toxicity when compared with standard cardiotonic steroids.

Na+,K+-ATPase [2] = target: T1, Na+,K+-ATPase (Canis lupus familiaris, UniProt P50997); test: displacement of the specific 3H-ouabain binding from the Na+,K+-ATPase receptor; settings: displacement of specific 3H-ouabain binding, purified enzyme
T1 construct: Na^+,K^+ -ATPase receptor purified according to Jorghensen; from tissue
Excerpt: (§1) To test the affinity for the receptor site of the Na^+,K^+ -ATPase and the inhibitory activity on the enzyme, the following tests were used: a) displacement of the specific 3H-ouabain binding from the Na^+,K^+ -ATPase receptor purified according to Jorghensen (Jorghensen P., BBA.

Na+,K+-ATPase [3] = target: T1, Na+,K+-ATPase; test: inhibition of the activity of the purified Na+,K+-ATPase (hydrolysis of 32P-ATP); format: biochemical; settings: purified enzyme
Excerpt: as §1

Row | SMILES | EC50 (guinea pig left atrium) [nM] | LD50 [1] [mg/kg] | EC50 (Na+,K+-ATPase [2]) [nM] | IC50 (Na+,K+-ATPase [3]) [nM]
1 | C[C@H]1O[C@@H](O[C@H]2[C@@H](O)C[C@H](O[C@H]3[C@@H](O)C[C@H](O[C@H]4CC[C@@]5(C)[C@H](CC[C@@H]6[C@@H]5C[C@@H](O)[C@]5(C)[C@@H](C7=CC(=O)OC7)CC[C@]65O)C4)O[C@@H]3C)O[C@@H]2C)C[C@H](O)[C@@H]1O [Digoxin, reference compound] | 500 | 18 |  | 
2 | C[C@]12CCC(=NOCCN)C[C@@H]1[C@@H](O)C[C@@H]1[C@@H]2CC[C@]2(C)[C@@H](O)CC[C@@H]12 [I-a, (E,Z)-3-(2-aminoethoxyimino)-5α-androstan-6α,17β-diol oxalate] | 2500 | > 600 | 100 | 1600
3 | C[C@]12CC[C@H](/C=N\OCCN)C[C@@H]1[C@@H](O)C[C@@H]1[C@@H]2CC[C@]2(C)[C@@H](O)CC[C@@H]12.O=C(O)C(=O)O [I-d, (Z)-3β-(2-aminoethoxyiminomethyl)-5α-androstan-6α,17β-diol oxalate] | 10500 | > 600 | 130 | 1600
4 | CN(C)CCO/N=C\[C@H]1CC[C@@]2(C)[C@H](C1)[C@@H](O)C[C@@H]1[C@@H]2CC[C@]2(C)[C@@H](O)CC[C@@H]12 [I-e, (Z)-3β-(2-N,N-dimethylaminoethoxyiminomethyl)-5α-androstan-6α,17β-diol oxalate] | 5600 | > 600 | 160 | 2000
5 | CN(C)CCO/N=C/C=C1\CC[C@@]2(C)[C@H](C1)[C@@H](O)C[C@@H]1[C@@H]2CC[C@]2(C)[C@@H](O)CC[C@@H]12 [I-f, (E)-3-[3-(2-N,N-dimethylaminoethoxyimino)(E)-propen-1-yl)-5α-androstan-6α,17β-diol] | 800 | 560 | 100 | 1000
6 | C[C@]12CCC(=NOCCN)C[C@@H]1C(=O)C[C@@H]1[C@@H]2CC[C@]2(C)C(=O)CC[C@@H]12 [I-h, (E,Z)-3-(2-aminoethoxyimino)-5α-androstan-6,17-dione emioxalate] | 600 | 520 | 20 | 300
7 | CN(C)CCO/N=C1/CC[C@@]2(C)[C@H](C1)C(=O)C[C@@H]1[C@@H]2CC[C@]2(C)C(=O)CC[C@@H]12 [I-i, (Z)-3-(2-N,N-dimethylaminoethoxyimino)-5α-androstan-6,17-dione] | 7100 | > 1000 | 500 | 12000
8 | CN(C)CCO/N=C/C=C1\CC[C@@]2(C)[C@H](C1)C(=O)C[C@@H]1[C@@H]2CC[C@]2(C)C(=O)CC[C@@H]12 [I-k, (E)-3-[3-(2-N,N-dimethylaminoethoxyimino)(E)-propen-1-yl)-5α-androstan-6,17-dione oxalate] | 12600 | > 600 | 320 | 3200
9 | CN(C)CCCO[C@H]1CC[C@@]2(C)[C@H](C1)C(=O)C[C@@H]1[C@@H]2CC[C@]2(C)C(=O)CC[C@@H]12 [I-m, 3β-(3-N,N-dimethylaminopropoxy)-5α-androstan-6,17-dione] | 20000 | > 1000 | 1300 | 50000
